Assay results: the NIST ThermoML archive (doi:10.1016/j.jct.2009.03.009)
Numbers after ± are expanded uncertainties.

Tests used:
[1] = xn = mol fraction of the nth substance listed; conditions: 313.15 K, 101 kPa, Liquid; for speed of sound: Sing-around technique in a fixed-path interferometer; for mass density: Vibrating tube method
[2] = refractive index (Na D-line) (dimensionless); xn = mol fraction of the nth substance listed; conditions: 313.15 K, 101 kPa, Liquid, Standard Abbe refractometry

## Cc1ccccc1 [toluene] + CCCCCC
[1]; x2 = 0
  speed of sound: 1240.7 ± 2.2 m/s
  mass density: 848 ± 0.2 kg/m3
[2]; x2 = 0
  refractive index: 1.48464 ± 0.00068

## Cc1ccccc1 [toluene] + CCCCCCC
[1]; x2 = 0
  speed of sound: 1240.7 ± 2.2 m/s
  mass density: 848 ± 0.2 kg/m3
[1]; x2 = 0.0496
  speed of sound: 1225.2 ± 2.2 m/s
  mass density: 835.7 ± 0.2 kg/m3
[1]; x2 = 0.1037
  speed of sound: 1211.4 ± 2.2 m/s
  mass density: 822.8 ± 0.2 kg/m3
[1]; x2 = 0.204
  speed of sound: 1185.7 ± 2.2 m/s
  mass density: 800.2 ± 0.2 kg/m3
[1]; x2 = 0.406
  speed of sound: 1144.8 ± 2.2 m/s
  mass density: 759.4 ± 0.3 kg/m3
[1]; x2 = 0.5045
  speed of sound: 1127.8 ± 2.2 m/s
  mass density: 741.5 ± 0.3 kg/m3
[1]; x2 = 0.6016
  speed of sound: 1113.1 ± 2.2 m/s
  mass density: 724.9 ± 0.3 kg/m3
[1]; x2 = 0.7011
  speed of sound: 1099.4 ± 2.2 m/s
  mass density: 709 ± 0.3 kg/m3
[1]; x2 = 0.8029
  speed of sound: 1087 ± 2.2 m/s
  mass density: 693.7 ± 0.3 kg/m3
[1]; x2 = 0.9019
  speed of sound: 1075.9 ± 2.2 m/s
  mass density: 679.7 ± 0.3 kg/m3
[1]; x2 = 0.9517
  speed of sound: 1071.2 ± 2.2 m/s
  mass density: 673 ± 0.3 kg/m3
[2]; x2 = 0
  refractive index: 1.48464 ± 0.00068
[2]; x2 = 0.0496
  refractive index: 1.47712 ± 0.00068
[2]; x2 = 0.1037
  refractive index: 1.46965 ± 0.00068
[2]; x2 = 0.204
  refractive index: 1.45586 ± 0.00068
[2]; x2 = 0.406
  refractive index: 1.43176 ± 0.00068
[2]; x2 = 0.5045
  refractive index: 1.42117 ± 0.00068
[2]; x2 = 0.6016
  refractive index: 1.41138 ± 0.00068
[2]; x2 = 0.7011
  refractive index: 1.40201 ± 0.00068
[2]; x2 = 0.8029
  refractive index: 1.39298 ± 0.00068
[2]; x2 = 0.9019
  refractive index: 1.38489 ± 0.00068
[2]; x2 = 0.9517
  refractive index: 1.38102 ± 0.00068

## Cc1ccccc1 [toluene] + CCCCCCCC
[1]; x2 = 0
  speed of sound: 1240.7 ± 2.2 m/s
  mass density: 848 ± 0.2 kg/m3
[2]; x2 = 0
  refractive index: 1.48509 ± 0.00068

## Cc1ccccc1 [toluene] + CCCCCCCCC
[1]; x2 = 0
  speed of sound: 1240.7 ± 2.2 m/s
  mass density: 848 ± 0.2 kg/m3
[2]; x2 = 0
  refractive index: 1.48464 ± 0.00068
